Measurements taken from ChEMBL document CHEMBL3525954, “Evaluation of hepatic disposition of paroxetine using sandwich-cultured rat and human hepatocytes” (Drug Metab Dispos, 2013).

Tests used:
[1] = Drug metabolism in Sprague-Dawley rat hepatocytes assessed as 4-(((4R)-4-(4-fluorophenyl)piperidin-3-yl)methoxy)-2-methoxyphenyl hydrogen sulfate level at 1 uM by radio-chromatogram analysis; format: ADME, cell-based, Hepatocyte; details: TDE = time-dependent effect
[2] = Drug metabolism in Sprague-Dawley rat hepatocytes assessed as parent compound level at 1 uM by radio-chromatogram analysis; format: ADME, cell-based, Hepatocyte; details: TDE = time-dependent effect
[3] = Drug metabolism in human hepatocytes assessed as parent compound level at 1 uM after 3 hrs by radio-chromatogram analysis; format: ADME, cell-based, Hepatocyte; details: read-out: Drug metabolism
[4] = Drug metabolism in 4 days of sandwich-cultured human hepatocytes assessed as parent compound level at 1 uM after 24 hrs by radio-chromatogram analysis; format: ADME, cell-based, Hepatocyte; details: read-out: Drug metabolism
[5] = Drug metabolism in 4 days of sandwich-cultured Sprague-Dawley rat hepatocytes assessed as 4-(((4R)-4-(4-fluorophenyl)piperidin-3-yl)methoxy)-2-methoxyphenyl hydrogen sulfate level at 1 uM by radio-chromatogram analysis; format: ADME, cell-based, Hepatocyte; details: 96 h, TDE = time-dependent effect
[6] = Drug metabolism in Sprague-Dawley rat hepatocytes assessed as parent compound level at 1 uM after 3 hrs by radio-chromatogram analysis; format: ADME, cell-based, Hepatocyte; details: read-out: Drug metabolism
[7] = Drug metabolism in 4 days of sandwich-cultured Sprague-Dawley rat hepatocytes assessed as (2S,3R,4S,5S,6R)-2-(4-(((4R)-4-(4-fluorophenyl)piperidin-3-yl)methoxy)-2-methoxyphenoxy)-6-(hydroxymethyl)tetrahydro-2H-pyran-3,4,5-triol level at 1 uM by radio-chromatogram analysis; format: ADME, cell-based, Hepatocyte; details: 96 h, TDE = time-dependent effect
[8] = Drug metabolism in Sprague-Dawley rat hepatocytes assessed as (2S,3R,4S,5S,6R)-2-(4-(((4R)-4-(4-fluorophenyl)piperidin-3-yl)methoxy)-2-methoxyphenoxy)-6-(hydroxymethyl)tetrahydro-2H-pyran-3,4,5-triol level at 1 uM by radio-chromatogram analysis; format: ADME, cell-based, Hepatocyte; details: TDE = time-dependent effect
[9] = Drug metabolism in 4 days of sandwich-cultured Sprague-Dawley rat hepatocytes assessed as parent compound level at 1 uM by radio-chromatogram analysis; format: ADME, cell-based, Hepatocyte; details: 96 h, TDE = time-dependent effect
[10] = Drug metabolism in 4 days of sandwich-cultured Sprague-Dawley rat hepatocytes assessed as parent compound level at 1 uM after 24 hrs by radio-chromatogram analysis; format: ADME, cell-based, Hepatocyte; details: read-out: Drug metabolism
[11] = Drug metabolism in 4 days of sandwich-cultured human hepatocytes assessed as biliary excretion index treated with at 1 uM of paroxetine after 0.025 to 24 hrs by radio-chromatogram analysis; format: ADME, tissue-based, Bile, Hepatocyte; details: 96 h
[12] = Drug metabolism in 4 days of sandwich-cultured Sprague-Dawley rat hepatocytes treated with at 1 uM of paroxetine by radio-chromatogram analysis; format: ADME, cell-based, Hepatocyte; details: 96 h, TDE = time-dependent effect
[13] = Drug metabolism in 4 days of sandwich-cultured Sprague-Dawley rat hepatocytes assessed as biliary excretion index treated with at 1 uM of paroxetine after 0.025 to 24 hrs by radio-chromatogram analysis; format: ADME, tissue-based, Bile, Hepatocyte; details: 96 h
[14] = Drug uptake in rat liver […] assessed as BCRP-mediated drug transport at 0.5 uM up to 2 mins by liquid scintillation counting in presence of ATP; format: ADME, subcellular
[15] = Drug metabolism in 4 days of sandwich-cultured human hepatocytes treated with at 1 uM of paroxetine after 24 hrs by radio-chromatogram analysis; format: ADME, cell-based, Hepatocyte; details: 96 h
[16] = Drug metabolism in Sprague-Dawley rat hepatocytes treated with at 1 uM of paroxetine by radio-chromatogram analysis; format: ADME, cell-based, Hepatocyte; details: TDE = time-dependent effect
[17] = Drug metabolism in human hepatocytes treated with at 1 uM of paroxetine after 3 hrs by radio-chromatogram analysis; format: ADME, cell-based, Hepatocyte

| Drug metabolism [1] | Drug metabolism [2] | remaining at 3 h, 1 µM [3] [%] | remaining at 96 h, 1 µM [4] [%] | Drug metabolism [5] | remaining at 3 h, 1 µM [6] [%] | Drug metabolism [7] | Drug metabolism [8] | Drug metabolism [9] | remaining at 96 h, 1 µM [10] [%] | SMILES | Drug metabolism [11] | Drug metabolism [12] | Drug metabolism [13] | Drug uptake [14] | Drug metabolism [15] | Drug metabolism [16] | Drug metabolism [17] |
| --- | --- | --- | --- | --- | --- | --- | --- | --- | --- | --- | --- | --- | --- | --- | --- | --- | --- |
| tde | tde | 71.4 | 52.8 | tde | 29.7 | tde | tde | tde | 36.6 | Fc1ccc([C@@H]2CCNC[C@H]2COc2ccc3c(c2)OCO3)cc1.O=C(O)/C=C\C(=O)O | – | – | – | – | – | – | – |
| – | – | – | – | – | – | – | – | – | – | COc1cc(OC[C@@H]2CNCC[C@H]2c2ccc(F)cc2)ccc1O[C@@H]1O[C@H](C(=O)O)[C@@H](O)[C@H](O)[C@H]1O | metabolite_detected | tde | metabolite_detected | Active | metabolite_detected | tde | metabolite_detected |
| – | – | – | – | – | – | – | – | – | – | COc1cc(OC[C@@H]2CNCC[C@H]2c2ccc(F)cc2)ccc1OS(=O)(=O)O | metabolite_detected | tde | metabolite_detected | Not Active | metabolite_detected | tde | metabolite_detected |
